Reference: ChEMBL document CHEMBL5346971, “Discovery of the First Irreversible HDAC6 Isoform Selective Inhibitor with Potent Anti-Multiple Myeloma Activity” (J Med Chem, 2023)
Calls of active or inactive are those of the source. The calls are words filed in the database; no cut-off is given here.

Tests used:
[1] = molecular target: Histone deacetylase 5 (Homo sapiens, UniProt Q9UQL6); assay: (§1) Inhibition of C-terminal His-tagged human recombinant HDAC5 catalytic domain (656 to 1122 residues) expressed in baculovirus-infected Sf9 cells using Boc-Lys(trifluoroacety1)-AMC as substrate preincubated with enzyme for 1 hr followed by substrate addition and measured after 30 mins by fluorescence based analysis
Histone deacetylase 5, sequence (Q9UQL6 whole entry, the tested form may be a part): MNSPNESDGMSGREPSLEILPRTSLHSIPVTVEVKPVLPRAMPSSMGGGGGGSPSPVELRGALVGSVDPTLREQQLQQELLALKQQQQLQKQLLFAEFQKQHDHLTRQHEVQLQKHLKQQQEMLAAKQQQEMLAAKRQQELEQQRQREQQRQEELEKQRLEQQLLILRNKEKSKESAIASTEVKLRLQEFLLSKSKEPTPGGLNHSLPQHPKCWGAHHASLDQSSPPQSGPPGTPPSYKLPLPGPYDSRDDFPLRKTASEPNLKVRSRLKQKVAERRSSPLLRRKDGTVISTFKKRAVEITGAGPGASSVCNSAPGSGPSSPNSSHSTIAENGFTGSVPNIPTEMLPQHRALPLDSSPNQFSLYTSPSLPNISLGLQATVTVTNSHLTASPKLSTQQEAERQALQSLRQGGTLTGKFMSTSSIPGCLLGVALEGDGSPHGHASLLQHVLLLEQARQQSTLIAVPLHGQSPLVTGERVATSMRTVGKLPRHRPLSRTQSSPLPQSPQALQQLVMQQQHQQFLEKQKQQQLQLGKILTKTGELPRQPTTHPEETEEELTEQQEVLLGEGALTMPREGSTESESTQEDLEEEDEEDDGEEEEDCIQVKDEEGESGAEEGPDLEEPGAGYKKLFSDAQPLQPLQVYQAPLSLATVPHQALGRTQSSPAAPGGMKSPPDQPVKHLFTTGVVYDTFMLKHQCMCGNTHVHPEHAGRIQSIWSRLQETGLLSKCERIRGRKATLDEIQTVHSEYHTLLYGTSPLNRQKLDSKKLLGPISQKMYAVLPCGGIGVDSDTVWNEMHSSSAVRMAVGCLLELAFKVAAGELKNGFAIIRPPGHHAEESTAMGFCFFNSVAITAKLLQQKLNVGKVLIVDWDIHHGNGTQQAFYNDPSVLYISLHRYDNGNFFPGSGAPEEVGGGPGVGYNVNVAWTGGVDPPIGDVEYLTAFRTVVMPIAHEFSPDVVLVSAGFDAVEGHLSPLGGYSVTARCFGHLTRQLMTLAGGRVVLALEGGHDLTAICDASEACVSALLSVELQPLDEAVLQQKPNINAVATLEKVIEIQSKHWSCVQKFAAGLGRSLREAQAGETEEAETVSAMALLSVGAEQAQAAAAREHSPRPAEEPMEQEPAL

[2] = molecular target: T1, Histone deacetylase 8 (Homo sapiens, UniProt Q9BY41); assay: Inhibition of C-terminal His-tagged human full length recombinant HDAC8 (1 to 377 residues) expressed in Sf9 cells using Boc-Lys(trifluoroacety1)-AMC as substrate preincubated with enzyme for 1 hr followed by substrate addition and measured after 30 mins by fluorescence based analysis
T1 sequence (Q9BY41 whole entry): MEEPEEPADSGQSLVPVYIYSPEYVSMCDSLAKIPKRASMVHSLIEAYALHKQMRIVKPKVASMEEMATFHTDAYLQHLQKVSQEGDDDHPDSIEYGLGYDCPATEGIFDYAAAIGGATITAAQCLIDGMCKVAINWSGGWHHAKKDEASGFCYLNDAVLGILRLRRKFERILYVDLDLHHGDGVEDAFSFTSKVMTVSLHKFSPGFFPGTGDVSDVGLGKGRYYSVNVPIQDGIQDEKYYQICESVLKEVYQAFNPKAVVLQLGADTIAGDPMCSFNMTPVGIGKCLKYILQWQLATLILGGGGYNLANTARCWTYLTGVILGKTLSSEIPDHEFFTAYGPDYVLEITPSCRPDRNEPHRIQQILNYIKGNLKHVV

[3] = molecular target: Class 1 histone deacetylase (Homo sapiens) (UniProt Q13547+O15379+Q92769+Q9BY41); assay: Irreversible inhibition of class 1 HDAC in human A549 cells assessed as acetyl histone H4 level at 0.4 uM incubated for 5 hrs followed by drug wash-out for 1 hr by western blot analysis relative to control; type: cell-based
[4] = molecular target: T2, Protein deacetylase HDAC6 (Homo sapiens) (UniProt Q9UBN7); assay: Inhibition of HDAC6 in human A549 cells assessed as acetyl alpha-tubulin level at 2 uM incubated for 5 hrs by western blot analysis relative to control; type: cell-based
T2 sequence (whole entry): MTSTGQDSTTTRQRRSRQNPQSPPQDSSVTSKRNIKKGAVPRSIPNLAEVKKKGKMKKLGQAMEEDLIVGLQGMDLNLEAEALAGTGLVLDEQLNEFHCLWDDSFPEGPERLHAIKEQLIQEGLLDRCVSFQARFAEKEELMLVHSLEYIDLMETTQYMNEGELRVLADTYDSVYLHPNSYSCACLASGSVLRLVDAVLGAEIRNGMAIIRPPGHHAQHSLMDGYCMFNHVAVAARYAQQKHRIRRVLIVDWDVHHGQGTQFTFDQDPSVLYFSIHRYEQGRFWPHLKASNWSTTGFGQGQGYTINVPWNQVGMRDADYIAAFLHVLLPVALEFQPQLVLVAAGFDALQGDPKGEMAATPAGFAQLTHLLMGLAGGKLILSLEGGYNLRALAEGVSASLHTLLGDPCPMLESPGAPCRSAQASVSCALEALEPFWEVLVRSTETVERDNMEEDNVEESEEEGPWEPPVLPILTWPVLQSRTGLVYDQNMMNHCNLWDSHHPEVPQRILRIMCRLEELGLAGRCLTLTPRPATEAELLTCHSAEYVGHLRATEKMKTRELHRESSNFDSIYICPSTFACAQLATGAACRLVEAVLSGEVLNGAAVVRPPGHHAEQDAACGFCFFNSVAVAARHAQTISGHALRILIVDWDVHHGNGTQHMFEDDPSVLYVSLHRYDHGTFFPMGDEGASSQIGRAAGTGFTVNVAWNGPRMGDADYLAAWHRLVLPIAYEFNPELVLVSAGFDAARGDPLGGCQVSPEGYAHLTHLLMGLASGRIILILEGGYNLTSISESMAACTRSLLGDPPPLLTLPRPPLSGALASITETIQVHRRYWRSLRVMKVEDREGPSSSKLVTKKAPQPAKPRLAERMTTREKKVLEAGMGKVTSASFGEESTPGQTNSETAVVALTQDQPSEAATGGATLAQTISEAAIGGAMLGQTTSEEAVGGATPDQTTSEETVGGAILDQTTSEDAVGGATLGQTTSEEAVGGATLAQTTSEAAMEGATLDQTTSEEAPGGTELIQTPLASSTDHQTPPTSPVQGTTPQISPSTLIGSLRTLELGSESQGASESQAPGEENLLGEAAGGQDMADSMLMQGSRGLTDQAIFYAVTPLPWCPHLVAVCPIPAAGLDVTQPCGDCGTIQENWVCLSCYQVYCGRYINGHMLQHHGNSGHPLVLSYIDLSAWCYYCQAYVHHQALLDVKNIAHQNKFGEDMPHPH

[5] = test system: RPMI-8226; assay: Antitumor activity against human RPMI-8226 cells xenografted in NCG mouse assessed as T/C ratio at 10 ug administered intratumorally every 2 days by vernier caliper analysis; type: functional; settings: dose 10 µg; route it(Intratumoral)
[6] = test system: RPMI-8226; assay: Antitumor activity against human RPMI-8226 cells xenografted in NCG mouse assessed as tumor growth inhibition at 10 ug administered intratumorally every 2 days by vernier caliper analysis; type: functional; settings: dose 10 µg; route it(Intratumoral)
[7] = molecular target: Histone deacetylase 4 (Homo sapiens, UniProt P56524); assay: as §1, with “N-terminal GST-tagged/C-terminal” for “C-terminal”, “HDAC4 (627” for “recombinant HDAC5 catalytic domain (656”, “1084” for “1122”
Histone deacetylase 4, sequence (P56524 whole entry, the tested form may be a part): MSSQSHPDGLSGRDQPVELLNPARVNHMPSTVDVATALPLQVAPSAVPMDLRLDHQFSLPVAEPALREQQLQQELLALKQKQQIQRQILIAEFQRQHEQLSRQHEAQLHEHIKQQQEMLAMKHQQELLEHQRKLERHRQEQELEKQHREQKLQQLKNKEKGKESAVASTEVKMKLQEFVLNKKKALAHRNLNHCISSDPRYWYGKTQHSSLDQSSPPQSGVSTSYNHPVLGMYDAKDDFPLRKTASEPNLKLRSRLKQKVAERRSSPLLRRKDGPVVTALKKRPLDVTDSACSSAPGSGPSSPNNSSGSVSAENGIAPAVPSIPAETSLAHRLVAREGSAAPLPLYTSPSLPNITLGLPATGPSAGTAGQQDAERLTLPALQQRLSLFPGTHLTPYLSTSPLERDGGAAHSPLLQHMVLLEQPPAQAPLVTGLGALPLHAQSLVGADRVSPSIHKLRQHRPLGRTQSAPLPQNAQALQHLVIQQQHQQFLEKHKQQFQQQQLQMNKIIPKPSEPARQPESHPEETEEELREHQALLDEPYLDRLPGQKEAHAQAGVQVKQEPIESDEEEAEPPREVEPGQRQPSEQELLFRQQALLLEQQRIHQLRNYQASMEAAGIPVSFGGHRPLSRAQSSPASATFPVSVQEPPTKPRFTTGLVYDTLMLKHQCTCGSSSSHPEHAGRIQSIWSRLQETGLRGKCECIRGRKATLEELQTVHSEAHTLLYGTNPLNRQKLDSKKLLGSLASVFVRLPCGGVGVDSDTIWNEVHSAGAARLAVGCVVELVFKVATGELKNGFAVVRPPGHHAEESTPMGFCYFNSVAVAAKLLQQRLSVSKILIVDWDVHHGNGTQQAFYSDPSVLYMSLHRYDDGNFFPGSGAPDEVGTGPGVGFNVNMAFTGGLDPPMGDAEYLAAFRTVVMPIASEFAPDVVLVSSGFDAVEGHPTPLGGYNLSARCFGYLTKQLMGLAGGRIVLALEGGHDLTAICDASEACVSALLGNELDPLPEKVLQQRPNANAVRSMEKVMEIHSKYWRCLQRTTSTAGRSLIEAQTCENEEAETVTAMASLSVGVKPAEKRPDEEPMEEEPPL

[8] = test system: RPMI-8226; assay: Induction of cell cycle arrest in human RPMI-8226 cells assessed as proportion of cells at S phase at 0.1 uM incubated for 24 hrs by PI staining based flow cytometry (reference value: 46.7%); type: functional
[9] = molecular target: T3, Protein deacetylase HDAC6 (Homo sapiens, UniProt Q9UBN7); assay: Inhibition of N-terminal GST-tagged human full length recombinant HDAC6 (1 to 1215 residues) expressed in Sf9 cells using Boc-Lys(acetyI)-AMC as substrate preincubated with enzyme for 1 hr followed by substrate addition and measured after 30 mins by fluorescence based analysis
T3 sequence (Q9UBN7 whole entry): T2 sequence (whole entry)

[10] = Metabolic stability of the compound in mouse liver microsomes assessed as parent compound remaining measured after 60 mins in presence of NADPH by LC-MS/MS analysis; type: ADME, Microsome; settings: read-out: Stability
[11] = Effect on HDAC6 protein expression in human A549 cells assessed as change in HDAC6 protein expression at 0.4 uM incubated for 5 hrs followed by drug wash-out for 1 hr by western blot analysis relative to control; type: functional
[12] = test system: RPMI-8226; assay: Induction of apoptosis in human RPMI-8226 cells assessed as proportion of necrotic cells at 0.5 uM incubated for 24 hrs by AnnexinV-FITC/PI staining based flow cytometry (reference value: 0.49%); type: functional, cell-based
[13] = Effect on HDAC6 protein expression in human A549 cells assessed as change in HDAC6 protein expression at 0.4 uM incubated for 5 hrs followed by drug wash-out for 6 hrs by western blot analysis relative to control; type: functional
[14] = test system: RPMI-8226; assay: Induction of apoptosis in human RPMI-8226 cells assessed as proportion of early apoptotic cells at 0.5 uM incubated for 24 hrs by AnnexinV-FITC/PI staining based flow cytometry (reference value: 10.63%); type: functional, cell-based
[15] = Intrinsic clearance in human liver microsomes in presence of NADPH by LC-MS/MS analysis; type: ADME, Microsome; settings: read-out: CLH

O=C(NO)c1ccc(COc2no[n+]([O-])c2S(=O)(=O)c2ccccc2)cc1
IC50 [1]: > 40000 nM
IC50 [2]: 2100 nM
fold change (FC) [3]: 1.2
fold change (FC) [4]: 4.3
T/C [5]: 55%
TGI [6]: 48%
IC50 [7]: > 40000 nM
Activity [8]: 49.8%
IC50 [9]: 33 nM
remaining at 1 h [10]: < 0.35%
fold change (FC) [11]: 1.2
Activity [12]: Active
fold change (FC) [13]: 1.1
Activity [14]: Active
CLint scaled [15]: 230 mL/min/kg
